One experiment relates to A. fumigatus. Briefly: Therapy of invasive aspergillosis in cyclophosphamide-immunosuppressed mice (survival, lung CFU). The experiment is classed as in vivo. The note with it: for MST / survival: 4 mg/Kg i.p. at 2 and 24 h; for survival: cyclophosphamide-treated mice. The method, then:
(§1) FIG. 12 depicts the therapeutic efficacy of SAP in treatment of invasive aspergillosis. a) b) c) survival of transiently immunosuppressed wt mice after injection with the indicated doses of AF conidia. The curve of untreated mice (n=3) with cyclophosphamide is also shown (a). Human SAP (4 mg/Kg) was injected at 2 h and 24 h after infection. a) AF 5.10^7, n=17; AF 5.10^7+SAP, n=15; b) AF 1.10^7, n=7; AF 1.10^7+SAP, n=8; c) AF 5.10^6, n=8; AF 5.10^6+SAP, n=10.***, P<0.005 SAP-treated vs. saline (Mantel-Cox test). One-way ANOVA, P<0.0001. d) lung CFU in mice treated with cyclophosphamide and infected with 1.10^7 AF conidia.*, P<0.05 (Mann-Whitney test). e) quantitative analysis of AF viability performed using a resazurin-based assay. Plasma (30%) from wt and Apcs^−/− mice were incubated (1 min) with 1.5×10^5 AF conidia pre-opsonized or not with SAP. Results are mean±SD of red fluorescence (excitation/emission 535/580-610 nm) intensity of the resazurin once reduced to resorufin within viable cells. Effect of Posaconazole (POC; 1 μM) exposure is also shown. Results are mean±SEM relative to the condition without serum (grey symbols) of two experiments performed with n=10 mice/group. […] AF viability assay performed in sera depleted from complement components. Figure summarizes one experiment out of 5 also conducted with serum 10%. Mean±SD.*, P<0.05; **, P<0.01 (unpaired t-test). g) and h) FACS analysis of MAC deposition on AF conidia (1×10^7) in presence of sera depleted from complement components (e) and the effect of SAP (f). Mean±SEM of 2 experiments performed out of 4. e, f,*, P<0.05;**, P<0.01;***, P<0.005;****, P<0.001; (Mann-Whitney test).
FIG. 13 depicts the therapeutic efficacy of SAP in treatment of invasive aspergillosis alone or in combination with posaconazole. Survival of transiently cyclophosphamide-immunosuppressed mice after injection with 5×10^7 conidia. Human SAP (4 mg/Kg) and Posaconazole (POS; 1.6 mg/Kg) were injected at 16 h and 40 h after infection. AF 5.10^7+ saline, n=9; AF 5.10^7+SAP, n=8; AF 5.10^7+POS, n=9; AF 5.10^7+SAP+POS, n=8. P<0.01, saline vs. hSAP; P<0.005, saline vs. POS; P<0.0005, saline vs. hSAP+POS; P<0.05, POS vs. hSAP+POS; (Mantel-Cox test).
The growth and culture conditions of A. fumigatus and A. Flavus conidia were as described (Garlanda et al., 2002). For intratracheal (i.t.) injection, mice were anesthetized by i.p. injection of ketamine (100 mg/Kg; i.p.) and xylazine (10 mg/Kg i.p.). After surgical exposure, a volume of 50 μl PBS^2+, pH 7.4, containing 1×10^8 or 5×10^7 resting conidia (>95% viable, as determined by serial dilution and plating of the inoculum on Sabouraud dextrose agar) were delivered into trachea under direct vision using a catheter connected to the outlet of a micro-syringe (Terumo, Belgium). Survival to infection was daily monitored for 10d later. Dying mice were euthanized after evaluation of the following clinical parameters: body temperature dropping, intermittent respiration, solitude presence, sphere posture, fur erection, non-responsive alertness, and inability to ascent when induced.
In therapy experiments, immunosuppression was induced by i.p. injection of 150 mg/Kg cyclophosphamide (150μl per mouse of 20 mg/ml solution) 2d before infection. Native human SAP (Merck-Millipore) was dialysed in PBS (pH 7.4) in order to eliminate sodium azide and i.p. injected at the dose of 4 mg/Kg at 2 and 24 h after infection or in combination with Posaconazole (POS; 1.6 mg/Kg) at 16 h and 40 h after infection.
Lung homogenates and analysis. Lungs were removed 16 h after infection and homogenized in 1 ml PBS, pH 7.4, containing 0.01% (vol/vol) Tween-20® (Merck-Millipore) and protease inhibitors. Samples were serially diluted 1:10 in PBS and plated on Sabouraud dextrose agar for blinded CFU counting. […]

Experiment [1] relates to membrane attack complex (MAC; C5b-C9) on A. fumigatus conidia. Briefly: FACS analysis of MAC (C5b-C9) deposition on A. fumigatus conidia in human sera. The experiment is classed as biochemical. As for the experimental part: as §1
Complement deposition on Aspergillus fumigatus. A volume of 10 μl PBS, pH 7.4, containing 1×10^7 conidia eventually opsonized with murine SAP (100 μg/ml per 1×10^9 conidia, 1 h at r.t.) was incubated (37° C.) in round bottom wells of Corning® 96-well polypropylene microplates for the indicated time points with 20 μl mouse plasma-heparin or 20 μl human NS and complement depleted sera (diluted in PBS at 10% and 30%). Complement deposition was blocked by addition of EDTA (10 mM final concentration) and by cooling in ice. After centrifugation (2000 rpm, 10 min at 4° C.), when indicated supernatant was collected for C5a measurement by ELISA. […] Conidia were then incubated (1 h, at 4° C.) with Alexa Fluor® 488 and 647-conjugated species-specific cross-adsorbed detection antibodies (2 μg/ml; ThermoFisher Scientific-Molecular Probes) and analysed by BD FACS Canto™ II Flow Cytometer (BD Biosciences) using forward and side scatter parameters to gate on at least 8,000 conidia. […] Results were expressed as frequency of conidia showing fluorescence compared with irrelevant controls and as geometric conidia MFI.
(In general: In flow cytometry, cells or beads pass a laser one at a time.)

Consider “human native SAP: Native SAP from human serum purchased by Merck-Millipore; Serum Amyloid P component, SEQ ID NO: 1”, for which the MST with A. fumigatus (1×10^7 conidia) is listed as greater than 10; in the experiment on A. fumigatus (5×10^6 conidia), greater than 10; with A. fumigatus (5×10^7 conidia), 4. Also, the survival in the experiment on A. fumigatus (1×10^7 conidia) came to 62.5%; with A. fumigatus (5×10^6 conidia), 80%; with A. fumigatus (5×10^7 conidia) it was 20%. For the same substance, the “lung fungal burden, median” value in the experiment on A. fumigatus (16 h, 1×10^7 conidia, SAP-treated mice) is recorded as 2.0×10^6 CFU. For the same substance, the “reduction in fungal burden in lung” value in the experiment with A. fumigatus (16 h, 1×10^7 conidia, SAP-treated vs. untreated) stood at 12 fold. Further, the “MAC formation on conidia” value in experiment [1] (FB-depleted serum) is recorded as “enhanced”; in experiment [1] (FH-depleted serum), “enhanced”; in experiment [1] (MBL-depleted serum) it was “enhanced”; in experiment [1] (normal serum, 1 min and 30 min), “enhanced”.
